According to article PMC11643720, “Addressing the Evolution of Cardenolide Formation in Iridoid-Synthesizing Plants: Site-Directed Mutagenesis of PRISEs (Progesterone-5β-Reductase/Iridoid Synthase-like Enzymes) of Plantago Species” (Molecules, 2024):
Where two headings read alike, the source gives them in different places.

Experiments:
[1] = test system: T1, rPlP5βR1 (PlP5βR1, PlP5βR); test: NADPH oxidation at […] nm, Michaelis-Menten; assay type: biochemical, Plantago lanceolata; settings: 0.2 mM NADPH, phosphate buffer pH 8.0, 40 °C; SD < 25%
T1 construct: gene P5βR1; full-length CDS 1170 bp, 389 aa; pDEST17, N-terminal 6xHis tag, E. coli SoluBL21 (mutants BL21(DE3)), Ni-NTA; printed WKF numbers of the two species may be swapped; wild type has L156 and L346 (abstract misprints A156, F346)

[2] = test system: T2, rPmdP5βR1 (PmdP5βR1, PmdP5βR); test: NADPH oxidation at […] nm, Michaelis-Menten; assay type: biochemical, Plantago media; settings: 0.2 mM NADPH, phosphate buffer pH 8.0, 40 °C, SD < 25%
T2 construct: gene P5βR1; full-length CDS 1170 bp, 389 aa; pDEST17, N-terminal 6xHis tag, E. coli SoluBL21 (mutants BL21(DE3)), Ni-NTA; printed WKF numbers of the two species may be swapped; wild type has F156 and A346

[3] = test system: T1, rPlP5βR1 (PlP5βR1, PlP5βR); test: NADPH oxidation at […] nm, Michaelis-Menten; assay type: biochemical, Plantago lanceolata; settings: 0.2 mM NADPH, phosphate buffer pH 8.0, 40 °C, SD < 25%, read-out: rPlP5βR1 / L156F
[4] = test system: T2, rPmdP5βR1 (PmdP5βR1, PmdP5βR); test: NADPH oxidation at […] nm, Michaelis-Menten; assay type: biochemical, Plantago media; settings: 0.2 mM NADPH, phosphate buffer pH 8.0, 40 °C, SD < 25%, read-out: rPmdP5βR1 / DMT
[5] = test system: T1, rPlP5βR1 (PlP5βR1, PlP5βR); test: NADPH oxidation at […] nm, Michaelis-Menten; assay type: biochemical, Plantago lanceolata; settings: 0.2 mM NADPH, phosphate buffer pH 8.0, 40 °C, SD < 25%, read-out: rPlP5βR1 / DMT
[6] = test system: T3, rPlP5βR1 (PlP5βR1, PlP5βR); settings: read-out: rPlP5βR1 / L346A; 0.2 mM NADPH, phosphate buffer pH 8.0, 40 °C, DMSO added at 0.4-0.6 mM progesterone; SD < 25%
T3 construct: gene P5βR1

[7] = test system: T4, rPmdP5βR1 (PmdP5βR1, PmdP5βR); settings: read-out: rPmdP5βR1 / F156L; 0.2 mM NADPH, phosphate buffer pH 8.0, 40 °C, DMSO added at 0.4-0.6 mM progesterone; SD < 25%
T4 construct: gene P5βR1

[8] = test system: T4, rPmdP5βR1 (PmdP5βR1, PmdP5βR); settings: read-out: rPmdP5βR1 / A346L; 0.2 mM NADPH, phosphate buffer pH 8.0, 40 °C, DMSO added at 0.4-0.6 mM progesterone; SD < 25%
[9] = DMSO added at 0.4-0.6 mM progesterone

Km [1]	Km [2]	Km [3]	Km [4]	Structure (SMILES)	Km [5]	Km [2, 9]	Km [3, 9]	Km [4, 9]	Km [5, 9]	Km [6]	Km [7]	Km [8]
66 µM	46 µM	16 µM	–	O=C1C=CCCC1 [2-cyclohexen-1-one]	–	–	–	–	–	–	–	–
100 µM	19 µM	–	7 µM	C/C(C=O)=C\CC/C(C)=C/C=O [8-oxogeranial]	10 µM	–	–	–	–	–	–	–
–	–	–	–	CC(=O)[C@H]1CC[C@H]2[C@@H]3CCC4=CC(=O)CC[C@]4(C)[C@H]3CC[C@]12C [progesterone]	–	67 µM	451 µM	587 µM	44 µM	170 µM	128 µM	218 µM

Structure (SMILES)	Km [1]	Km [2]	Km [3]	Km [4]	Km [5]	Km [2, 9]	Km [3, 9]	Km [4, 9]	Km [5, 9]	Km [6]	Km [7]	Km [8]
C=CC(C)=O [methyl vinyl ketone]	100 µM	33 µM	–	–	216 µM	–	–	–	–	–	–	–
